Assay results as given in patent US7067553B2, “Thiourea compounds and the pharmaceutical compositions containing the same” (Pacific Corporation, priority 2000, dated 2006).

Key:
[1] = target: T1, vanilloid receptor (Rattus norvegicus, UniProt O35433); assay: 45Ca influx test (calcium uptake) in cultured DRG neurons, capsaicin-stimulated; format: cell-based; conditions: neonatal SD rat DRG neurons; capsaicin 0.5 μM; 45Ca 10 μCi/ml; 10 min at room temperature; NR: no response
T1 construct: DRG nerve cells from the primary culture of 2–3 days were equilibrated; endogenous in cells; host or cells: primary culture of dorsal root ganglion neurons from neonatal SD rats
T1 sequence (O35433 whole entry): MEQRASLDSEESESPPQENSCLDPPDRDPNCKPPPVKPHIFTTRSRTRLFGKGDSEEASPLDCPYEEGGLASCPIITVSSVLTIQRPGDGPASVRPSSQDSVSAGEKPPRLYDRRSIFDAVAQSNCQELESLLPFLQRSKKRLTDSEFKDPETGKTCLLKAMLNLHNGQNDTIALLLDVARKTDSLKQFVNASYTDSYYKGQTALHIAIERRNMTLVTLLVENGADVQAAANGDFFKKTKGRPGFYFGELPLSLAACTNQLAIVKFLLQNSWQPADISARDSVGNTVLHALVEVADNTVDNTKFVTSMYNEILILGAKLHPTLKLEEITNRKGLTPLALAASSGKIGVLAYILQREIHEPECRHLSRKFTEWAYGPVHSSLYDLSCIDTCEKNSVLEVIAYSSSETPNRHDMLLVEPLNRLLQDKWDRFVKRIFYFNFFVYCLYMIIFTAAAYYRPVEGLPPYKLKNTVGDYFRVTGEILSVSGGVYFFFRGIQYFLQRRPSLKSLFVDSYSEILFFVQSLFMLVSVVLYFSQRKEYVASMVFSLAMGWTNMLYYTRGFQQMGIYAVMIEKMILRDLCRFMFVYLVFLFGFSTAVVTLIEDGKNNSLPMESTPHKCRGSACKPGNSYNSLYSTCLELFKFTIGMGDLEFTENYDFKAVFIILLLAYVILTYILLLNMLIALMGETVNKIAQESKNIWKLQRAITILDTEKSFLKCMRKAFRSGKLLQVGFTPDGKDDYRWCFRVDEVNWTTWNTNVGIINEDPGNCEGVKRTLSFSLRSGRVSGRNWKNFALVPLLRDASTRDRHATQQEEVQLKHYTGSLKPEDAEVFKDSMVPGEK
Experimental: 1) Separation of Spinal Dorsal Root Ganglia (DRG) in Newborn Rats and Primary Culture Thereof
Neonatal(2-day old or younger than 2-day old) SD rats were put in ice for 5 minutes to anesthetize and disinfected with 70% ethanol. DRG of all part of spinal cord were dissected (Wood et al., 1988, J. Neurosci. 8, pp3208–3220) and collected in DME/F12 medium to which 1.2 g/l sodium bicarbonate, 50 mg/l gentamycin were added. The DRG were incubated sequentially at 37° C. for 30 min in 200 U/ml collagenase and 2.5 mg/mil trypsin, separately. The ganglia were washed twice with DME/F12 medium supplemented with 10% horse serum, triturated through a fire-polished Pasteur pipette, filtered through Nitex 40 membrane to obtain single cell suspension. This was subjected to centrifugation, then re-suspended in cell culture medium at certain level of cell density. As the cell culture medium, DME/F12 medium supplemented with 10% horse serum, diluted 1:1 with identical medium conditioned by C6 glioma cells (2 days on a confluent monolayer) was used, and NGF(Nerve Growth Factor) was added to final concentration of 200 ng/ml. After the cells were grown 2 days in medium where cytosine arabinoside (Ara-C, 100 μM) was added to kill dividing nonneuronal cells, medium was changed to one without Ara-C. The resuspended cells were plated at a density of 1500–1700 neurons/well onto Terasaki plates previously coated with 10 μg/ml poly-D-ornithine.
2) ^45Ca Influx Experiments
DRG nerve cells from the primary culture of 2–3 days were equilibrated by washing 4 times with HEPES (10 mM, pH 7.4)-buffered Ca^2+, Mg^2+-free HBSS (H-ABSS). The solution in each well was removed from the individual well. Medium containing the test compound plus capsaicin (final concentration 0.5 μM) and ^45Ca (final concentration 10 μCi/ml) in H-HBSS was added to each well and incubated at room temperature for 10 min. Terasalki plates were washed six times with H-HBSS and dried in an oven. To each well, 0.3% SDS (10 μl) was added to elute ^45Ca. After the addition of […] of scintillation cocktail into each well, the amount of ^45Ca influx into neuron was measured by counting radioactivity.

[2] = system: Male ICR mice; assay: Analgesic activity test: mouse writhing test by inducing with phenyl-p-quinone; format: in vivo; conditions: dose 1 mg/kg intraperitoneally 30 min before phenyl-p-quinone; writhes vs control
Experimental: (3) Analgesic Activity Test: Mouse Writhing Test by Inducing with Phenyl-p-quinone
Male ICR mice (mean body weight 25 g) were maintained in a controlled lighting environment (12 h on/12 h off for experiment. Animals received an intraperitoneal injection of 0.3 ml of the chemical irritant phenyl-p-quinone (dissolved in saline containing 5% ethanol to be a dose of 4.5 mg/lkg) and 6 min later, the number of abdominal constrictions was counted in the subsequent 6 min period. Animals (10 animals/group) received 0.2 ml of test compounds solution in vehicle of ethanol/Tween 80/saline (10/10/80) intraperitoneally 30 min before the injection of phenyl-p-quinone. A reduction in the number of writhes responding to the test drug compound relative to the number responding in saline control group was considered to be indicative of an analgesic effect. Analgesic effect was calculated by % inhibition equation (% inhibitio=(C−T)/C×100), wherein C and T represent the number of writhes in control and compound-treated group, respectively (Table 2).

[3] = system: Male ICR mice; assay: Antiinflammatory activity test: TPA-induced mouse ear edema test; format: in vivo; conditions: dose 1 mg/ear topical; TPA 2.5 μg; ear weight 24 h after TPA
Experimental: (4) Antiinflammatory Activity Test: TPA(12-O-tetradecanoylphorbol 13-acetate)-induced Mouse Ear Edema Test
Male ICR mice(body weight 25–30 g), 10 animals/group, were treated topically on the right ear with 30 μl of TPA (2.5 μg) solution in acetone and after 15 min. 30 μl of acetone or test compound solution in acetone was applied topically. After six hours, an identical treatment was applied again. After twenty four hours following the treatment of TPA, the animals were sacrificed and ear tissue was dissected using 6 mm-diameter punch. Ear tissue dissected were weighed to the nearest 0.1 mg on an electrobalance. The increased weight of the tissue compared to control group was considered as an index of inflammation. The percent inhibition is defined by the following equation: % inlibition=(C−T)/C×100, wherein C and T represent an increase of ear weight in TPA-treated and TPA+drug-treated group, respectively.

Row | Structure (SMILES) | IC50 [1] [nM] | Analgesic effect (% Inhibition) [2] [%] | Anti-inflammatory effect (% Inhibition) [3] [%]
1 | CC(C)(C)C(=O)OCC(CCc1ccc(C(C)(C)C)cc1)CNC(=S)NCc1ccc(NS(C)(=O)=O)cc1 (stereo not shown) [Example 17] | 1800 | – | –
2 | Cc1ccc(CCC(CNC(=S)NCc2ccc(NS(C)(=O)=O)cc2)COC(=O)C(C)(C)C)cc1C (stereo not shown) [Example 16] | 1100 | – | –
3 | COc1cc(CNC(=S)NCC(COC(=O)C(C)(C)C)Cc2ccc(C)c(C)c2)ccc1NS(C)(=O)=O (stereo not shown) [Example 12] | 680 | 65 | 41
4 | COc1cc(C/N=C(\S)NCC(COC(=O)c2ccccc2)Cc2ccc(C(C)(C)C)cc2)ccc1NS(C)(=O)=O (stereo not shown) [Example 15] | > 50000 | – | –
5 | COc1cc(CNC(=S)NCC(COC(=O)c2ccccc2)Cc2ccc(C)c(C)c2)ccc1NS(C)(=O)=O (stereo not shown) [Example 13] | 38000 | – | –

Second part, led by results:

Row | IC50 [1] [nM] | Structure (SMILES) | Analgesic effect (% Inhibition) [2] [%] | Anti-inflammatory effect (% Inhibition) [3] [%]
6 | 2500 | CC(C)(C)C(=O)OCC(C/N=C(\S)NCc1ccc(NS(C)(=O)=O)cc1)Cc1ccc(C(C)(C)C)cc1 (stereo not shown) [Example 10] | – | –
7 | 13000 | Cc1ccc(CC(CN/C(S)=N/Cc2ccc(NS(C)(=O)=O)cc2)COC(=O)c2ccccc2)cc1C (stereo not shown) [Example 9] | – | –
8 | > 50000 | CC(C)(C)c1ccc(CC(CNC(=S)NCc2ccc(NS(C)(=O)=O)cc2)COC(=O)c2ccccc2)cc1 (stereo not shown) [Example 11] | – | –
